Results published in ChEMBL document CHEMBL1135579, “Serine-threonine protein phosphatase inhibitors: development of potential therapeutic strategies” (J Med Chem, 2002).

How the values were obtained:
[1] = target: T1, Serine/threonine-protein phosphatase PP1-gamma catalytic subunit (Homo sapiens, UniProt P36873); assay: Inhibition of Serine/threonine protein phosphatase 1 (PP1) mutants by natural toxins in wild type
Target sequence in this assay (P36873 2-323 limits assumed, stated change not applied): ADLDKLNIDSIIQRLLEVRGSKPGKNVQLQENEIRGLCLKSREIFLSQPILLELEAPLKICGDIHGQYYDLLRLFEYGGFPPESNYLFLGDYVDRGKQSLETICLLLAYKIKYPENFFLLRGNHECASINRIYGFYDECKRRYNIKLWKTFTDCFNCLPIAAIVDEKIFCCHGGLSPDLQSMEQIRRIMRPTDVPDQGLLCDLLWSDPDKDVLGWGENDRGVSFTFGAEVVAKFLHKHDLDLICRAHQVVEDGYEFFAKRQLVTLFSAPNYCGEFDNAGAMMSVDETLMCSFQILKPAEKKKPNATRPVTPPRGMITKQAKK

[2] = target: Serine/threonine-protein phosphatase PP1-gamma catalytic subunit (Homo sapiens, UniProt P36873, D220V); assay: Inhibition of Serine/threonine protein phosphatase 1 (PP1) mutant type D220V by compound was evaluated
[3] = target: Serine/threonine-protein phosphatase PP1-gamma catalytic subunit (Homo sapiens, UniProt P36873, R221S); assay: Inhibition of Serine/threonine protein phosphatase 1 (PP1) mutant type R221S by compound was evaluated
[4] = target: Serine/threonine-protein phosphatase PP1-gamma catalytic subunit (Homo sapiens, UniProt P36873, H248N); assay: Inhibition of Serine/threonine protein phosphatase 1 (PP1) mutant type H248N by compound was evaluated
[5] = target: Serine/threonine-protein phosphatase PP1-gamma catalytic subunit (Homo sapiens, UniProt P36873, N124D); assay: Inhibition of Serine/threonine protein phosphatase 1 (PP1) mutant type N124D by compound was evaluated
[6] = Exogenous inhibition of Serine/threonine protein phosphatase 1 (PP1); parameters: species or system Homo sapiens
[7] = target: Serine/threonine-protein phosphatase PP1-gamma catalytic subunit (Homo sapiens, UniProt P36873, C127S); assay: Inhibition of Serine/threonine protein phosphatase 1 (PP1) mutant type C127S by compound was evaluated
[8] = Exogenous inhibition concentration of Serine/threonine protein phosphatase 2B (PP2B)
[9] = target: Serine/threonine-protein phosphatase PP1-gamma catalytic subunit (Homo sapiens, UniProt P36873, R96A); assay: Inhibition of Serine/threonine protein phosphatase 1 (PP1) mutant type R96A by compound was evaluated
[10] = target: Serine/threonine-protein phosphatase PP1-gamma catalytic subunit (Homo sapiens, UniProt P36873, D208A); assay: Inhibition of Serine/threonine protein phosphatase 1 (PP1) mutant type D208A by compound was evaluated
[11] = target: Serine/threonine-protein phosphatase PP1-gamma catalytic subunit (Homo sapiens, UniProt P36873, Y272F); assay: Inhibition of Serine/threonine protein phosphatase 1 (PP1) mutant type Y272F by compound was evaluated
[12] = target: Serine/threonine-protein phosphatase PP1-gamma catalytic subunit (Homo sapiens, UniProt P36873, E275R); assay: Inhibition of Serine/threonine protein phosphatase 1 (PP1) mutant type E275R by compound was evaluated
[13] = Exogenous inhibition concentration of Serine/threonine protein phosphatase 4 (PP4)
[14] = Exogenous inhibition concentration of Serine/threonine protein phosphatase 2C (PP2C); NI means no inhibition.
[15] = Selectivity for interaction at Serine/threonine protein phosphatase 2B (PP2B); details: read-out: Ki app
[16] = target: T1, Serine/threonine-protein phosphatase PP1-gamma catalytic subunit; assay: Inhibition of Serine/threonine protein phosphatase 1 by anhydride modified Cantharidin analogues
Target sequence in this assay (P36873 whole entry): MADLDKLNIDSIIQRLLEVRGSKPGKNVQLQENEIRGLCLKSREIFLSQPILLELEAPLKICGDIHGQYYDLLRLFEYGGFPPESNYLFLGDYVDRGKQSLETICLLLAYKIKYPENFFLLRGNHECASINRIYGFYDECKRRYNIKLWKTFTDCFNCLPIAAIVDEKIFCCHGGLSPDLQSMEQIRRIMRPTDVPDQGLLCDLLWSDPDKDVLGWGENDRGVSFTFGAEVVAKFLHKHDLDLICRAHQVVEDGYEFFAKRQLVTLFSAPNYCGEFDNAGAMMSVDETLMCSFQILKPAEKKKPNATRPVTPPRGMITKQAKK

[17] = Inhibition of growth after 72 hr continuous exposure to test compounds in Colon HCT 116 tumor cell lines; format: functional; details: Homo sapiens, HCT-116, 72 h
[18] = Inhibition of growth after 72 hr continuous exposure to test compounds in Osteosarcoma 143B tumor cell lines; format: functional; details: Homo sapiens
[19] = target: T2, Serine-threonine protein phosphatase 2A regulatory subunit (Gallus gallus) (UniProt Q8AWE3); assay: Tested for selective inhibition of Serine/threonine protein phosphatase 2A (PP2A) with respect to inhibition of Serine/threonine protein phosphatase 1 (PP1)
T2 sequence (whole entry): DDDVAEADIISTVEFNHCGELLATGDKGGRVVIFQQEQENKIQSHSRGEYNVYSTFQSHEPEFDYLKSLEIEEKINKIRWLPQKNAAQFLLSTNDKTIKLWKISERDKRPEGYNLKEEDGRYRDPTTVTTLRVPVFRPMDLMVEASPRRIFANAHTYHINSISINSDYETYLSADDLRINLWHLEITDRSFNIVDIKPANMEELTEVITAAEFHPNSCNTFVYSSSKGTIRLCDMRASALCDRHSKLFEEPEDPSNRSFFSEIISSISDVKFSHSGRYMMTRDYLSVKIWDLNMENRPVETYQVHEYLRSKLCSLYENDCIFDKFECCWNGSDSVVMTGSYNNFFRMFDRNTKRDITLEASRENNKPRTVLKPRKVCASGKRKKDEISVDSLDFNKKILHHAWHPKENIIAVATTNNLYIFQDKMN

[20] = Inhibition of growth after 72 hr continuous exposure to test compounds in colon HT-29 tumor cell lines; format: functional; details: Homo sapiens, HT-29, 72 h
[21] = target: T3, Serine-threonine protein phosphatase 2A regulatory subunit (Gallus gallus, UniProt Q8AWE3); assay: Inhibition of Serine/threonine protein phosphatase 2A by anhydride modified Cantharidin analogues
T3 sequence (Q8AWE3 whole entry): T2 sequence (whole entry)

[22] = Inhibition of growth after 72 hr continuous exposure to test compounds in Ovarian A2780 tumor cell lines; format: functional; details: A2780, 72 h
[23] = Inhibition of growth after 72 hr continuous exposure to test compounds in Ovarian ADDP tumor cell lines; format: functional

Chain of Serine/threonine-protein phosphatase PP1-gamma catalytic subunit (Homo sapiens, UniProt P36873, R96A) (P36873 2-323 R96A limits assumed): as the sequence (P36873 2-323 limits assumed, stated change not applied) above, with R95A counted along it
Chain of Serine/threonine-protein phosphatase PP1-gamma catalytic subunit (Homo sapiens, UniProt P36873, H248N) (P36873 2-323 H248N limits assumed): as the sequence (P36873 2-323 limits assumed, stated change not applied) above, with H247N counted along it
Chain of Serine/threonine-protein phosphatase PP1-gamma catalytic subunit (Homo sapiens, UniProt P36873, R221S) (P36873 2-323 R221S limits assumed): as the sequence (P36873 2-323 limits assumed, stated change not applied) above, with R220S counted along it
Chain of Serine/threonine-protein phosphatase PP1-gamma catalytic subunit (Homo sapiens, UniProt P36873, Y272F) (P36873 2-323 Y272F limits assumed): as the sequence (P36873 2-323 limits assumed, stated change not applied) above, with Y271F counted along it
Chain of Serine/threonine-protein phosphatase PP1-gamma catalytic subunit (Homo sapiens, UniProt P36873, D220V) (P36873 2-323 D220V limits assumed): as the sequence (P36873 2-323 limits assumed, stated change not applied) above, with D219V counted along it
Chain of Serine/threonine-protein phosphatase PP1-gamma catalytic subunit (Homo sapiens, UniProt P36873, D208A) (P36873 2-323 D208A limits assumed): as the sequence (P36873 2-323 limits assumed, stated change not applied) above, with D207A counted along it
Chain of Serine/threonine-protein phosphatase PP1-gamma catalytic subunit (Homo sapiens, UniProt P36873, C127S) (P36873 2-323 C127S limits assumed): as the sequence (P36873 2-323 limits assumed, stated change not applied) above, with C126S counted along it
Chain of Serine/threonine-protein phosphatase PP1-gamma catalytic subunit (Homo sapiens, UniProt P36873, N124D) (P36873 2-323 N124D limits assumed): as the sequence (P36873 2-323 limits assumed, stated change not applied) above, with N123D counted along it
Chain of Serine/threonine-protein phosphatase PP1-gamma catalytic subunit (Homo sapiens, UniProt P36873, E275R) (P36873 2-323 E275R limits assumed): as the sequence (P36873 2-323 limits assumed, stated change not applied) above, with E274R counted along it

## C=C1[C@@H](O)[C@@H]2O[C@]3(CC[C@H](/C=C/[C@@H](C)[C@@H]4CC(C)=C[C@@]5(O[C@H](C[C@@](C)(O)C(=O)O)CC[C@H]5O)O4)O3)CC[C@H]2O[C@@H]1[C@@H](O)C[C@H](C)[C@H]1O[C@@]2(CCCCO2)CC[C@H]1C [OKADAIC ACID]
[1]
  IC50: 0.045 µM
[2]
  IC50: 0.028 µM
[3]
  IC50: > 5 µM
[4]
  IC50: > 5 µM
[5]
  IC50: > 5 µM
[6]
  IC50: 0.003 µM
[7]
  IC50: 0.078 µM
[8]
  IC50: > 10000 µM
[9]
  IC50: 0.26 µM
[10]
  IC50: > 5 µM
[11]
  IC50: 1.15 µM
[12]
  IC50: 0.048 µM
[13]
  IC50: 0.0002 µM
[14]
  IC50: no inhibition

## O=C(O)C1C2C[C@H](COC(=O)C3C[C@H]3c3ccccc3)[C@@H](O2)C1C(=O)O (stereo not given in full)
[6]
  IC50: 4 µM
[8]
  IC50: 11.5 µM
[15]
  Ki: 0.5 µM

## CCOC(=O)C1C(C(=O)O)C2CC[C@H]1O2 (stereo not given in full)
[16]
  IC50: 2.96 µM
[17]
  GI50: 266 µM
[18]
  GI50: 437 µM
[19]
  PP2A Selectivity: 6.6
[20]
  GI50: 243 µM
[21]
  IC50: 0.45 µM
[22]
  GI50: 185 µM
[23]
  GI50: 330 µM
